Measurements reported in patent US10947503B2, “Method for modifying T cell population” (International Institute of Cancer Immunology, Inc., priority 2014, dated 2021).

Key:
[1] = tested on: human CD4+CD45RO+ T cells; assay: Modulation of T cell differentiation by RAR agonists and antagonists; type: cell-based; conditions: 8 days culture, vs DMSO
From the text: Human CD4^+CD45RO^+ T cells were stimulated with an anti-CD3/CD28 antibody and IL-2, and cultured in the presence of DMSO as a control, or various RAR agonists (FIG. 30) or RAR antagonists (FIG. 31) for 8 days.

[2] = tested on: human CD4+CD45RO+ T cells; assay: Culture with anti-CD3, anti-CD28, IL-2 and retinol for a week: cell number and intracellular cytokine assay (IFN-γ); type: cell-based; conditions: various concentrations of retinol, one week; retinol concentration-dependent
Protocol: The RDH10-targeting shRNA (sh #10-2, SEQ ID NO:18), or an shRNA targeting luciferase (sh-luc, SEQ ID NO:20) as a control was introduced into human CD4^+CD45RO^+ T cells using a lentivirus vector. In the same way, a lentivirus vector in which an RDH10 gene was incorporated was introduced into human CD4^+CD45RO^+ T cells to produce RDH10 high-expression T cells.
These cells were cultured in the presence of an anti-CD3 antibody, an anti-CD28 antibody and IL-2 together with various concentrations of retinol (all-trans type) for a week. Then, the number of cells was measured and at the same time, the frequency of cells producing IFN-γ was determined by an intracellular cytokine assay.

[3] = tested on: CD4+ T cells with human WT1332-specific TCR gene; assay: WT1332-specific TCR-introduced CD4+ T cells: memory proportion and proliferation on re-stimulation; type: cell-based
Protocol: CD4^+ T cells into which a human WT1332-specific TCR gene was introduced were stimulated with human WT1332, and cultured in the presence of DMSO (control), retinoic acid or an RAR antagonist (LE540). As a result, when the T cells were cultured in the presence of the RAR antagonist, the proportion of memory-type CD4^+ T cells was increased (FIG. 24). Further, when the T cell population cultured in the presence of the RAR antagonist was re-stimulated with PBMC which had been pulsed with human WT1332, and cultured (T cell: 30,000 cells/well; PBMC: 100,000 cells/well; […]

[4] = tested on: Tumor cells expressing both WT1 protein and luciferase; assay: Anti-tumor immunity induction with human WT1 peptide and RAR antagonist in NOG mice; type: in vivo, mouse; conditions: for survival period: intraperitoneal, compared with control (DMSO)
Protocol: Tumor cells expressing both WT1 protein and luciferase were subcutaneously implanted into a ventral part of NOD/Shi-scid, IL-2Rγnull mice (NOG mice). Three days after the implantation, 10^4 human WT1332-specific CD4^+ T cells (GPP positive) were injected intravenously (day 0). Eight hours after the intravenous injection, DMSO (control), retinoic acid or LE540 was administered intraperitoneally. One day after the intravenous injection, CD3^+ T cells were removed, and 2×10^6 human peripheral blood mononuclear cells which had been pulsed with the human WT1332 peptide were injected intravenously (day 1). Then, a survival period was observed. In addition, the amount of tumor was determined every week by administering luciferin which was a substrate for luciferase and measuring the intensity of emission induced by luciferase from outside the body.

[5] = tested on: terminal effector fraction of human WT1332-specific CD4+ T cell clone; assay: Induction of memory T cells from terminal effector T cells; type: cell-based
From the text: A terminal effector fraction contained in a human WT1332-specific CD4+ T cell clone derived from a single cell was stimulated with dendritic cells which had been pulsed with human WT1332, and cultured in the presence of DMSO (control), retinoic acid or an RAR antagonist (LE540) for 7 days. Then, the cells were labelled with CFSE, re-stimulated with dendritic cells which had been pulsed with human […], and further cultured in the presence of DMSO (control), retinoic acid or an RAR antagonist (LE540). After culturing for 4 or 6 days, the cells were subjected to an FACS analysis and a ^3H-thymidine incorporation assay (cell proliferation assay).

[6] = tested on: human CD4+CD45RO+ T cells; assay: Resistance to apoptosis after anti-Fas antibody (7C11) stimulation; type: cell-based; conditions: 8 days culture, then anti-Fas antibody
Protocol: Human CD4^+CD45RO^+ T cells were cultured in the presence of DMSO (control), retinoic acid or an RAR antagonist (LE540) for 8 days, and then stimulated with an anti-Fas antibody (7C11). The proportion of apoptotic cells and the proportion of living cells were determined and analyzed. As a result, the apoptotic cells were increased and the living cells were decreased by enhancing the differentiation of cells by retinoic acid. In contrast, when the differentiation was suppressed by the RAR antagonist, the apoptotic cells were decreased and the living cells were increased (FIG. 20).

[7] = tested on: human CD4+CD45RO+ T cells; assay: Division ability and proliferation ability of memory T cells after re-stimulation; type: cell-based; conditions: 8 days culture, re-stimulated with anti-CD3/CD28 antibody and IL-2, or IL-7
Protocol: Human CD4^+CD45RO^+ T cells were stimulated with an anti-CD3/CD28 antibody, cultured in the presence of DMSO (control), retinoic acid or an RAR antagonist (LE540) for 8 days, re-stimulated with an anti-CD3/CD28 antibody and IL-2, or IL-7, and cultured. The division ability and proliferation ability of the T cells were evaluated. For evaluation of the division ability, Cell Trace (trade name) Violet Cell Proliferation Kit (manufactured by Life Technologies) was used. As a result, when the differentiation of T cells was enhanced by retinoic acid, both the division ability and the proliferation ability were decreased, whereas when the differentiation was suppressed by the RAR antagonist, both the division ability and the proliferation ability were increased (FIG. 21).

[8] = tested on: human CD4+CD45RO+ T cells; assay: Ability to form memory T cell population after re-stimulation; type: cell-based; conditions: 8 days culture, re-stimulated and cultured for 7 days
From the text: Human CD4^+CD45RO^+ T cells were stimulated with an anti-CD3/CD28 antibody, cultured in the presence of DMSO (control), retinoic acid or an RAR antagonist (LE540) for 8 days, and re-stimulated and cultured with an anti-CD3/CD28 antibody and IL-2, or IL-7 for 7 days. The subsets of the T cells were identified.

[9] = tested on: human CD4+ T cells transferred into NOG mouse; assay: Reformation ability of cultured T cells in body of immunodeficient mouse; type: in vivo; conditions: T cells in spleen 4 weeks after transfer
Protocol: Human CD4^+CD45RO^+ T cells were stimulated with an anti-CD3/CD28 antibody, cultured in the presence of DMSO (control), retinoic acid or an RAR antagonist (LE540) for 8 days, and then transferred together with human PBMC from which T cells were removed into the body of an immunodeficient mouse lacking T cells, B cells and NK cells (NOG mouse). After 4 weeks, T cells in the spleen of the mouse were analyzed.

[10] = tested on: human CD4+CD45RO+ T cells; assay: Enhancement of T cell differentiation by retinoic acid; type: cell-based; conditions: vs DMSO; stimulation with IL-2, anti-CD3/CD28 antibody, or both
From the text: Human CD4^+CD45RO^+ T cells were stimulated by various methods (IL-2, anti-CD3/CD28 antibody, and anti-CD3/CD28 antibody and IL2), and cultured in the presence of DMSO (control) or all-trans retinoic acid (hereinafter retinoic acid used in all Examples described below is all-trans retinoic acid). As a result, in the cell population cultured in the presence of retinoic acid, the proportion of central memory cells (upper right in a graph) was decreased, and the proportion of terminal effector cells (left lower in a graph) was increased (FIG. 19).

[11] = tested on: human CD4+CD45RO+ T cells; assay: Suppression of RDH10 expression by shRNA: composition of T cell population; type: cell-based; conditions: compared with T cell population expressing control shRNA
From the text: A construct to express an shRNA targeting retinol dehydrogenase 10 and consisting of a sequence set forth in SEQ ID NO:18 (RDH10-targeting shRNA) was introduced into human CD4^+CD45RO^+ T cells. Specifically, using a lentivirus vector system, packaging cells (293T cell line) were co-transfected with a vector in which a DNA consisting of a nucleotide sequence of SEQ ID NO:19 was incorporated into a cloning site and a packaging vector to produce a recombinant virus, and the human CD4^+CD45RO^+ T cells were infected with the recombinant virus. Integration of the shRNA expression construct into a chromosome was confirmed based on the expression of GFP as a reporter which was located downstream of the shRNA expression construct. In the T cell population in which the RDH10-targeting shRNA was expressed by such a method, the proportion of terminal effector cells ([…]) was decreased and the proportion of central memory cells (CD127^+, CD62L^+) was increased, as compared with a T cell population in which a control shRNA (SEQ ID NO:20) was expressed by the same method (FIG. 2).

Compound: CCCCCCCCc1ccc(-c2ccc(C(=O)O)cc2)cc1 [AC55649]
- expression of CD62L [1]: decreased
- proportion of memory T cells (CD62L+CD127+ cells) [1]: decreased

Compound: CC1(C)CC=C(c2cnc3ccccc3c2)c2cc(C(=O)Nc3ccc(C(=O)O)cc3)ccc21 [BMS195614]
- expression of CD62L [1]: increased
- proportion of memory T cells (CD62L+CD127+ cells) [1]: increased

Compound: CC1(C)CCC(C)(C)c2cc(C(=O)Nc3ccc(C(=O)O)cc3)ccc21 [AM580]
- expression of CD62L [1]: decreased
- proportion of memory T cells (CD62L+CD127+ cells) [1]: decreased

Compound: CN1c2cc3c(cc2N=C(c2ccc(C(=O)O)cc2)c2ccccc21)C(C)(C)CCC3(C)C [LE135]
- expression of CD62L [1]: increased
- proportion of memory T cells (CD62L+CD127+ cells) [1]: increased

Compound: CC1(C)CCC(C)(C)c2cc(C3(c4ccc5cc(C(=O)O)ccc5c4)SCCS3)ccc21 [MM11253]
- expression of CD62L [1]: increased
- proportion of memory T cells (CD62L+CD127+ cells) [1]: increased

Compound: CC1=C(/C=C/C(C)=C/C=C/C(C)=C/CO)C(C)(C)CCC1 [retinol, all-trans retinol]
- IFN-γ producing cells [2]: increased
- number of cells [2]: increased

Compound: CN1c2cc3c(cc2N=C(c2ccc(C(=O)O)cc2)c2ccc4ccccc4c21)C(C)(C)CCC3(C)C [LE540]
- proliferation ability after re-stimulation with WT1332-pulsed PBMC ([3]; compared with cells cultured with DMSO or retinoic acid, no IL-2): high proliferation ability
- proportion of memory-type CD4+ T cells ([3]; stimulated with human WT1332): increased
- tumor size (-fold increase relative to day 0) ([4]; day 21, compared with DMSO group and retinoic acid group): significantly small
- survival period [4]: extended
- expression of CD62L [1]: increased
- proportion of memory T cells (CD62L+CD127+ cells) [1]: increased
- induction of central memory CD4+ T cells from terminal effector CD4+ T cells ([5]; LE540): induced again
- generation of memory T cells having high division ability and high proliferation ability ([5]; evaluation after re-stimulation): generated
- apoptotic cells [6]: decreased
- living cells [6]: increased
- division ability of T cells [7]: increased
- proliferation ability of T cells [7]: increased
- appearance frequency of memory T cells [8]: high frequency
- ability to proliferate in the body of the immunodeficient mouse [9]: high ability to proliferate
- differentiation state of T cells in the mouse [9]: undifferentiated

Compound: CC1=C(/C=C/C(C)=C/C=C/C(C)=C/C(=O)O)C(C)(C)CCC1 [retinoic acid, all-trans retinoic acid]
- survival period [4]: shortened
- expression of CD62L [1]: decreased
- proportion of memory T cells (CD62L+CD127+ cells) [1]: decreased
- apoptotic cells [6]: increased
- living cells [6]: decreased
- division ability of T cells [7]: decreased
- proliferation ability of T cells [7]: decreased
- appearance frequency of memory T cells [8]: low
- proportion of central memory cells [10]: decreased
- proportion of terminal effector cells [10]: increased

Compound: RDH10-targeting shRNA: shRNA targeting retinol dehydrogenase 10, sequence SEQ ID NO:18, expressed from a lentivirus vector (GUACACUUCUGGGCCACUGAACUUCCUGUCAUUUAGUGGUCCAGAAGUGUGC)
- proportion of central memory cells (CD127+, CD62L+) [11]: increased
- proportion of terminal effector cells [11]: decreased

Compound: O=C(O)c1ccc2cc(-c3ccc(O)c(C45CC6CC(CC(C6)C4)C5)c3)ccc2c1 [CD437]
- expression of CD62L [1]: decreased
- proportion of memory T cells (CD62L+CD127+ cells) [1]: decreased
